Experimental data: patent US6743586B2, “Rapid fluorescence detection of binding to nucleic acid drug targets labelled with highly fluorescent nucleotide base analogs” (The United States of America as represented by the …, priority 2001, dated 2004)
Read-outs that look alike come from different tables or passages of the source. *1 amine or outer side, *2 acyl side, *3 side chain or, on linkers, in order; H or OH if unused. Where no end group is shown, it is not given here. Suc = O=C(CCC(=O)[*:2])[*:1]

Assays:
72AP-RRE-peptide complex = assay: Competitive displacement: 72AP-RRE-peptide complex (1:1) titrated with Neomycin B, Dynafit fit; assay type: binding, HIV-1
Method: Quantitative analysis of the binding event indicates the rev peptide binds to 2-AP RRE with wild type affinity (KD˜13±2 nM). The fluorescent 72AP-RRE construct is also a useful probe for assaying small molecule binding to RRE, as well as determining if the small molecule is an effective inhibitor of the rev-RRE interaction. For example, it has been shown using the aminoglycoside Neomycin B, a known inhibitor of RRE-rev interaction, that the 72AP-RRE construct can be used to detect small molecule inhibition of the rev-RRE interaction. […]
The fluorescence of RNA oligonucleotide samples (150 μL), selectively labeled with 2-AP, was measured at 10° C. on a SPEX Fluoromax-2 spectrofluorometer (Instruments, SA, Edison, N.J.) using a 0.3 cm square cuvette. […] Emission spectra were recorded over the wavelength range of 330 to 450 nm with an excitation wavelength of 310 nm. […] The dissociation constant for rev binding to RRE-72AP was determined by following the increase in fluorescence at 370 nm as a fixed concentration of the fluorescent RNA was titrated with increasing amounts if rev. Similarly, the binding of aminoglycosides was followed by monitoring the change in 2-AP fluorescence as a fixed concentration of RRE-72AP or RRE-68AP was titrated with increasing amounts of the aminoglycoside. […]

68AP-RRE = assay: 2-AP fluorescence titration of 68AP-RRE with aminoglycosides; assay type: binding, HIV-1
Method: For example, using the 68AP-RRE construct, three classes of binding sites for the Neomycin B can be detected.
The fluorescence of RNA oligonucleotide samples (150 μL), selectively labeled with 2-AP, was measured at 10° C. on a SPEX Fluoromax-2 spectrofluorometer (Instruments, SA, Edison, N.J.) using a 0.3 cm square cuvette. RRE sample concentration was typically 100 nM in either standard buffer A (140 mM NaCl, 5 mM KCl, 1 mM MgCl2, 1 mM CaCl2, and 20 mM HEPES [7.4 pH]) or buffer B (25 mM NaCl, 5 mM KCl and 1 mM Cacodylate [6.5 pH]). Emission spectra were recorded over the wavelength range of 330 to 450 nm with an excitation wavelength of 310 nm. The spectral bandpass was 5 nm for all spectra. The dissociation constant for rev binding to RRE-72AP was determined by following the increase in fluorescence at 370 nm as a fixed concentration of the fluorescent RNA was titrated with increasing amounts if rev. Similarly, the binding of aminoglycosides was followed by monitoring the change in 2-AP fluorescence as a fixed concentration of RRE-72AP or RRE-68AP was titrated with increasing amounts of the aminoglycoside. Single site binding of rev or aminoglycoside was fitted to Formula I: […]
where Fo and Ff are the initial and final fluorescence intensities, respectively, [RRE]tot is the total RRE concentration, and [L]tot is the total concentration of rev, aminoglycoside or other ligands. Aminoglycoside binding to multiple sites on RRE was modeled using the computer program Dynafit. Competitive displacement assays were performed to determine which aminoglycoside binding were inhibitory to rev binding. For these experiments, a solution of 2-AP labeled RRE was incubated with a fixed concentration of Neomycin B (or rev peptide), and the fluorescence change followed as increasing amounts of competing rev peptide (or Neomycin B) was added to the solution. The fluorescence emission intensities at 370 nm as a function of total added ligand concentration were fit to a given molecular mechanism by non-linear least squared regression using the computer program Dynafit.

72AP-RRE = assay: 2-AP fluorescence titration of RRE-72AP with rev peptide; set-up: species or system HIV-1; settings: fluorescence at 370 nm, 10° C., wild type affinity, read-out: KD of rev peptide binding to 2-AP RRE
Method: The fluorescence of RNA oligonucleotide samples (150 μL), selectively labeled with 2-AP, was measured at 10° C. on a SPEX Fluoromax-2 spectrofluorometer (Instruments, SA, Edison, N.J.) using a 0.3 cm square cuvette. RRE sample concentration was typically 100 nM in either standard buffer A (140 mM NaCl, 5 mM KCl, 1 mM MgCl2, 1 mM CaCl2, and 20 mM HEPES [7.4 pH]) or buffer B (25 mM NaCl, 5 mM KCl and 1 mM Cacodylate [6.5 pH]). Emission spectra were recorded over the wavelength range of 330 to 450 nm with an excitation wavelength of 310 nm. The spectral bandpass was 5 nm for all spectra. The dissociation constant for rev binding to RRE-72AP was determined by following the increase in fluorescence at 370 nm as a fixed concentration of the fluorescent RNA was titrated with increasing amounts if rev. Similarly, the binding of aminoglycosides was followed by monitoring the change in 2-AP fluorescence as a fixed concentration of RRE-72AP or RRE-68AP was titrated with increasing amounts of the aminoglycoside. Single site binding of rev or aminoglycoside was fitted to Formula I:
F=−{(Fo−Ff)/2*[RRE]tot}{b−{square root over ((b^2−4[L]tot[RRE]tot))}}+Fo (1)
where Fo and Ff are the initial and final fluorescence intensities, respectively, [RRE]tot is the total RRE concentration, and [L]tot is the total concentration of rev, aminoglycoside or other ligands. […]

RRE = settings: direct binding, highly specific for the RRE; read-out: KD of rev binding to RRE; cited from earlier work

Compound: NC[C@@H]1O[C@H](O[C@H]2[C@@H](O)[C@H](O[C@@H]3[C@@H](O)[C@H](N)C[C@H](N)[C@H]3O[C@H]3O[C@H](CN)[C@@H](O)[C@H](O)[C@H]3N)O[C@@H]2CO)[C@H](N)[C@@H](O)[C@@H]1O [Neomycin B]
- Kd (72AP-RRE-peptide complex; read-out: KD, first tight site): ~230 nM
- Kd (72AP-RRE-peptide complex; read-out: KD, second site, competitive with rev): ~1900 nM
- Kd (68AP-RRE; 68AP-RRE construct, read-out: KD, first site, non-inhibitory to rev binding): 240 ± 40 nM
- Kd (68AP-RRE; 68AP-RRE construct, read-out: KD, second site, inhibited rev binding in a competitive fashion): 1800 ± 80 nM
- Kd (68AP-RRE; 68AP-RRE construct, read-out: KD, third class of sites, non-specific binding): ~40000 nM

Compound: [H]/N=C(/N)N[C@H]1[C@H](O)[C@@H](O)[C@H](O[C@@H]2O[C@@H](C)[C@](O)(C=O)[C@H]2O[C@@H]2O[C@@H](CO)[C@H](O)[C@@H](O)[C@@H]2NC)[C@@H](N/C(N)=N\[H])[C@@H]1O [Streptomycin]
- Kd (68AP-RRE; RRE, reported alongside the 68AP-RRE data, read-out: KD, low affinity binding interaction with RRE): 1500 nM

Compound: Suc-TRQARRNRRWRERQRAAAK [rev peptide]
- Kd (72AP-RRE): ~13 nM

Compound: rev: HIV-1 regulatory protein rev that binds the rev-responsive element (RRE)
- Kd (RRE): 1 to 3 nM
